The results in this text go back to publication PMC9415638, “Discovery of novel thiazolyl-pyrazolines as dual EGFR and VEGFR-2 inhibitors endowed with in vitro antitumor activity towards non-small lung cancer” (Journal of Enzyme Inhibition and Medicinal Chemistry, 2022).

Each structure is given as a SMILES string.

One test relates to A549 lung cancer cells. The test is described as follows: Anti-proliferative MTT assay. Conditions: Homo sapiens, A549, 24 h; for inhibition at 10 µM: read-out: % Growth inhibition ± SEM A549; for IC50: read-out: IC50 (µM) ± SEM A549.
The next test concerns A549 cells migration. The test is described as follows: Scratch wound healing assay. Format: cell-based, human. Conditions: 36 h, vs control. The protocol: Figure 5. Effect of compounds 10b and 10d on A549 cells migration. […] Representative images of scratched areas in confluent A549 cell layers.
A549 cells were seeded and incubated in 6-well cell culture plates till reaching confluence. Then, the confluent monolayers were scratched to form a “wound” using a sterile needle. The cells were treated with either vehicle as a control, 10b or 10d for 36 h. The images were recorded at 0 and 36 h to monitor the migration of cells into the wounded area using a light photomicroscope.

A further test addresses PKC. The experiment in a line: Kinase selectivity profiling, Z'-LYTE FRET. The following applies: read-out: IC50 (nM) PKC.
The subject of the next test is A549 cells. The experiment in a line: Annexin V-FITC/PI apoptosis assay. The following applies: A549, 5 μM, 24 h; control 5.4% (10b), […] (10d). The test is classed as cell-based, human. The protocol: Figure 7. Apoptotic effect of compounds 10b and 10d on A549 cells. (A) Representative cytograms of apoptotic A549 cells stimulated with 0 (control), 2.5 or 5 μM 10b or 10d, for 24 h. The lower-right (annexin V + PI- cells) and the upper-right (annexin V + PI + cells) quadrants show early and late apoptotic cells, and the lower-left (annexin V-PI- cells) and the upper-left ([…]) quadrants represent viable and necrotic cells, respectively. (B) Quantification of annexin V-positive apoptotic cells upon stimulation with 10b or 10d. The values are the means ± SEM of three different experiments. *p < 0.05 and *p < 0.01 indicate significant differences compared with control.
DNA content was measured using 7-aminoactinmycin D (7AAD) (Biotium, Inc., Hayward, CA) staining and is commonly used for cell cycle phase analysis as previously described. Apoptosis was evaluated using the annexin V/propidium iodide (PI) staining kit (BioLegend, San Diego, CA) according to the manufacturer’s instructions and as previously described.

Test [1] deals with NCI-H1650 cells (EGFR exon19 deletion delE746-A750). The experiment in a line: MTT assay on EGFR-mutated NSCLC cells. Format: cell-based. Conditions: Homo sapiens. The protocol: (§1) All chemicals used in this study were analytical or cell-culture grade.
(§2) Cytotoxicity was measured using the MTT assay. […] The medium was aspirated and 150 μL DMSO was added to solubilise MTT formazan crystals. The plates were then shaken, and the optical density was determined at 570 nm using an ELISA plate reader (Model 550, Bio-Rad, Hercules, CA). At least three independent experiments were performed.

For test [2], the system named is NCI-H1975 cells (EGFR L858R/T790M). The test is described as follows: MTT assay on EGFR-mutated NSCLC cells. The test is classed as cell-based. Conditions: Homo sapiens, EGFR L858R/T790M double mutation. The protocol: as §1, §2
The target in test [3] is T1, recombinant human VEGFR-2/KDR (Homo sapiens, UniProt P35968).
T1 construct: purchased
T1 sequence (P35968 20-1356): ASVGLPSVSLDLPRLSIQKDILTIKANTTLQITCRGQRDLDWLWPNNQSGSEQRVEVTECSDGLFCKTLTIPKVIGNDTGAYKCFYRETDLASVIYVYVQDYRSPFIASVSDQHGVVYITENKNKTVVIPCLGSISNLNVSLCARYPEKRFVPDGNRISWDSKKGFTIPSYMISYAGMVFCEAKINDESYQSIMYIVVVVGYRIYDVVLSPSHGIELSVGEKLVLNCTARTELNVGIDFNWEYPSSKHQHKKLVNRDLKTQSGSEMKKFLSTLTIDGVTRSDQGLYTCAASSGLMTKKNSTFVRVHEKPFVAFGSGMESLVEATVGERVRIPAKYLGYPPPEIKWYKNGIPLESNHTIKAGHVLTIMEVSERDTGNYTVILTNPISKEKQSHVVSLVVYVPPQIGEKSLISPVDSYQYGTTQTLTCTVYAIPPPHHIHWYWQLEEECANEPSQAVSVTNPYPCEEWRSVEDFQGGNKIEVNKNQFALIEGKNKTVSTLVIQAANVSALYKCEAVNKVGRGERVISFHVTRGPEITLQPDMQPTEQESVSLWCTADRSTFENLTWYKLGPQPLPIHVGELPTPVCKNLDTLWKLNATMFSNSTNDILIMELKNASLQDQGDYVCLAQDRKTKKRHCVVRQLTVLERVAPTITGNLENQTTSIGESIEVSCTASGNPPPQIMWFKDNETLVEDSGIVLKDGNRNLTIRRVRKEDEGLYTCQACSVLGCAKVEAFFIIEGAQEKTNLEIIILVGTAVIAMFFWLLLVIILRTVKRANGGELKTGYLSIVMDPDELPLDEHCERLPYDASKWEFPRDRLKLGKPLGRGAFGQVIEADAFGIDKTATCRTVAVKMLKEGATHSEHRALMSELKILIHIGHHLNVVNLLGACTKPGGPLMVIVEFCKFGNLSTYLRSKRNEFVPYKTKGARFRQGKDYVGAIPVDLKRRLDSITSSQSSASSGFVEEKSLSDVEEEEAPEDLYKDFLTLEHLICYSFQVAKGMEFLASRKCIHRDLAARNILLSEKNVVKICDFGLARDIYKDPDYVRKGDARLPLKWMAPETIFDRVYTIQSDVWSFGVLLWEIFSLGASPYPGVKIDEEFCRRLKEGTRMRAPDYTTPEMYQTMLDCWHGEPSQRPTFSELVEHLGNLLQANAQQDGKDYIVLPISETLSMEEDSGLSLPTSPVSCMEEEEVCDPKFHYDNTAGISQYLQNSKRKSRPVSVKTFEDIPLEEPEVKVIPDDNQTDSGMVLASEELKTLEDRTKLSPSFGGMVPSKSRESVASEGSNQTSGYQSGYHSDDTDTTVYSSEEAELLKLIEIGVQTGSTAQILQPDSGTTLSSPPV
The test is described as follows: VEGFR-2 kinase assay (VEGFR-2/KDR ELISA kit). Format: biochemical. The following applies: read-out: IC50 (nM) ± SEM VEGFR-2. The protocol:
The EGFR kinase assay was carried out in 96-well plates coated with PGT (poly l-glutamic acid l-tyrosine, 4:1, Sigma Aldrich, St. Louis, MO) as previously described. IC50 values were calculated using GraphPad Prism 5. Each experiment was carried out at least three times. The VEGFR-2 kinase assay was carried out in 96-well streptavidin coated plate using recombinant human VEGFR-2/KDR ELISA kit according to manufacturer’s instructions.

The target of a further test is AKT1 (Homo sapiens, UniProt P31749). The experiment in a line: Kinase selectivity profiling, Z'-LYTE FRET.
Sequence of AKT1 (P31749 whole entry): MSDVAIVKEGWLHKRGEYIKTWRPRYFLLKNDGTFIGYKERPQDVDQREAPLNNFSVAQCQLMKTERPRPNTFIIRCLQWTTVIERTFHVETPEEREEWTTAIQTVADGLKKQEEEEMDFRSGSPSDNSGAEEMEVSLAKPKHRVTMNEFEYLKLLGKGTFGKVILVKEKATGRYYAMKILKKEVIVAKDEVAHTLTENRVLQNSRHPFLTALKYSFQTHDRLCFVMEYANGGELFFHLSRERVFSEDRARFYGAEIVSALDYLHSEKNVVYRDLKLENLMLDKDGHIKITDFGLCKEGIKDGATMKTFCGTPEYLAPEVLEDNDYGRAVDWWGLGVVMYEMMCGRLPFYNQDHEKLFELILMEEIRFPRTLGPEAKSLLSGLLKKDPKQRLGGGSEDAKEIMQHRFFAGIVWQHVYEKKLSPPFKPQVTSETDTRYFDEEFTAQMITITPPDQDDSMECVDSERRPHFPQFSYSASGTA
Another test concerns the target EPHB2 (Homo sapiens, UniProt P29323). The test is described as follows: Kinase selectivity profiling, Z'-LYTE FRET.
In the next test the target is TEK (Homo sapiens, UniProt Q02763). The test is described as follows: Kinase selectivity profiling, Z'-LYTE FRET.
Sequence of TEK (Q02763 23-1124): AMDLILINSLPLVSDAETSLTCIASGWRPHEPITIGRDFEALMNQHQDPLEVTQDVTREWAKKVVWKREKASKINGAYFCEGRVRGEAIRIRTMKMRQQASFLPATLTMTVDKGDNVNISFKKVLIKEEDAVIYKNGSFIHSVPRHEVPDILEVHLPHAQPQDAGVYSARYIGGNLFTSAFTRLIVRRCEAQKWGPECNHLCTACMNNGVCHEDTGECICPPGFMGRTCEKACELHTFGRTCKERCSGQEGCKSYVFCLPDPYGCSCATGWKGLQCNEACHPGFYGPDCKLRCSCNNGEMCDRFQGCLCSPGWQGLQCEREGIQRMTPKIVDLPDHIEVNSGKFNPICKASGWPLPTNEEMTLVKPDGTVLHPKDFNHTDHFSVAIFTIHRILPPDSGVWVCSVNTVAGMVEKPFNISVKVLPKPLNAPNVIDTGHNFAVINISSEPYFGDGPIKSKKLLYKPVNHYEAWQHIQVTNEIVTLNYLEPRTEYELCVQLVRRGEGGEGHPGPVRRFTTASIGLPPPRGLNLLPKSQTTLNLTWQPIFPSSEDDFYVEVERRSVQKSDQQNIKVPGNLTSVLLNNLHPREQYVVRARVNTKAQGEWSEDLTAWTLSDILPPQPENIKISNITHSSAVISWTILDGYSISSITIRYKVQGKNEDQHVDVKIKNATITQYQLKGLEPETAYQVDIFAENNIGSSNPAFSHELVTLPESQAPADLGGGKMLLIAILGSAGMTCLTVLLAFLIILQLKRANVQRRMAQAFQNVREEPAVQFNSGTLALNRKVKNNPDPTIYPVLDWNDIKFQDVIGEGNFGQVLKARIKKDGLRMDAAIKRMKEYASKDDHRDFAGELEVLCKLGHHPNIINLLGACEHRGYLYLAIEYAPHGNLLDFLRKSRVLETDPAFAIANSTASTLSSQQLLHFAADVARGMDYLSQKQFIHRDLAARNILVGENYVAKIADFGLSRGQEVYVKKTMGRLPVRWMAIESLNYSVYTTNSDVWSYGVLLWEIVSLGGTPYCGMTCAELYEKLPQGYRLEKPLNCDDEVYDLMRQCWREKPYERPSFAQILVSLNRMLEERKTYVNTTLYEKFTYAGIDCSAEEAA
Another test has as its target CDK5 (Homo sapiens, UniProt Q00535). The test is described as follows: Kinase selectivity profiling, Z'-LYTE FRET.
A further test concerns K562 leukaemia cells. The test is described as follows: Anti-proliferative MTT assay. The test is classed as cell-based. Conditions: Homo sapiens, 24 h, read-out: % Growth inhibition ± SEM K562. An outline of the steps: (§3)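 MTT read-out after 24 h compound treatment of cells seeded overnight at 1 × 10^4 cells/well, then 4 h MTT (2 mg/mL in PBS) at 37 °C. Formazan dissolved in DMSO, OD at 570 nm. IC50 from ≥3 independent experiments; preliminary screen at single 10 µM dose gave %GI.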

A further test relates to KG-1a leukaemia cells. The experiment in a line: Anti-proliferative MTT assay. The test is classed as cell-based. Conditions: Homo sapiens, 24 h, read-out: % Growth inhibition ± SEM KG-1a. Summed up:
as §3

The test system of test [4] is MCF-7 breast cancer cells. The test is described as follows: Anti-proliferative MTT assay. Format: cell-based. The following applies: Homo sapiens, MCF7, 24 h, read-out: % Growth inhibition ± SEM MCF-7. An outline of the steps:
as §3

Sequence of EPHB2 (P29323 19-1055): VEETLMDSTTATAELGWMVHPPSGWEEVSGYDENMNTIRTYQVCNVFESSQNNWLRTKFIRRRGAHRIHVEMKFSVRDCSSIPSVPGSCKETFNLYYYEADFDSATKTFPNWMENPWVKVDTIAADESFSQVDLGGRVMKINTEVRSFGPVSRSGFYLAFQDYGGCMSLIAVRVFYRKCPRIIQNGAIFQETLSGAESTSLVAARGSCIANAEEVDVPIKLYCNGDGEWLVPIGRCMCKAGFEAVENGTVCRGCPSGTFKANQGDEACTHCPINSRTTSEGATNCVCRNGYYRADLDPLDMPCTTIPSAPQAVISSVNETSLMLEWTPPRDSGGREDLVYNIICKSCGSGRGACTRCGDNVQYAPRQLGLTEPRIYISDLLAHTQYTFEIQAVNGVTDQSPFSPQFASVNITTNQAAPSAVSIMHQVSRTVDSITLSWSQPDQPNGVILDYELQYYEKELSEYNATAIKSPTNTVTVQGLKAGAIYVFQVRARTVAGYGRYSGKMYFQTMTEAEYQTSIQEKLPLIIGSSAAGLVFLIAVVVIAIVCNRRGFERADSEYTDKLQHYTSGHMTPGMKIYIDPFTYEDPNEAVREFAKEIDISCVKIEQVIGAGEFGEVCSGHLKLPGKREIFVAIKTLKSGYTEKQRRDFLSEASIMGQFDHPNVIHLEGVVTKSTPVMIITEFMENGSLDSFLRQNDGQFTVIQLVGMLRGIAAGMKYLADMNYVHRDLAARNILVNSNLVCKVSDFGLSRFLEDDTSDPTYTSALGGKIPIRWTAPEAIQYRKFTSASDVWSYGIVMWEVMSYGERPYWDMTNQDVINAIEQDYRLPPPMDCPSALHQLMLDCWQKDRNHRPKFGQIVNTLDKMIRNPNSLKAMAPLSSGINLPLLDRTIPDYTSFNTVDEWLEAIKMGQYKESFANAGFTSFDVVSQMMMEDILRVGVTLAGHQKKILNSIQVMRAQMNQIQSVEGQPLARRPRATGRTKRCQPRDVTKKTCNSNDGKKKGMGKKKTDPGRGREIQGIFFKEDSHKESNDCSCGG
Sequence of CDK5 (Q00535 whole entry): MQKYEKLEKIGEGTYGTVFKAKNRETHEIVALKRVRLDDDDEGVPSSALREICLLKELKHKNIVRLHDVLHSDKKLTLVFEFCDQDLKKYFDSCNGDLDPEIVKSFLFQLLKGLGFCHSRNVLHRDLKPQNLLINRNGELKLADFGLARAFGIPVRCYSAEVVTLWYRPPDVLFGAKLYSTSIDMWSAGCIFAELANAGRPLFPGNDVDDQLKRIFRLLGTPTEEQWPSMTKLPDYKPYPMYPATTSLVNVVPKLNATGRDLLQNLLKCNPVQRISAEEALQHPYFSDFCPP
Sequence of CDK5 (Q15078 whole entry partner): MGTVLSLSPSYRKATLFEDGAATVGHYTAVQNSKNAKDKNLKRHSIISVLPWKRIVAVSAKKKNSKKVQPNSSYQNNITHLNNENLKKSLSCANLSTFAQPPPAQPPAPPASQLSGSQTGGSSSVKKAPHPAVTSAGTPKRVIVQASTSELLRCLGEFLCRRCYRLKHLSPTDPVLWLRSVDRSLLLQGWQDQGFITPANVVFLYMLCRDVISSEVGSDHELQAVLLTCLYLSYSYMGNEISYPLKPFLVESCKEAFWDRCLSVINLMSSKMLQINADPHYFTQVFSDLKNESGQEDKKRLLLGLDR
Method for A549 lung cancer cells: The compounds were added at a single concentration (10 µM) and the cultures were incubated for 24 h, then the per cent growth inhibition (%GI) was calculated.

In the case of `CCOC(=O)c1sc(N2N=C(c3ccc(Cl)cc3Cl)CC2c2ccc(OC)cc2)nc1C` (stereo not drawn) [Compound 10b, Ethyl-2-(3-(2,4-dichlorophenyl)-5-(4-methoxyphenyl)-4,5-dihydro-1H-pyrazol-1-yl)-4-methylthiazole-5-carboxylate], the inhibition at 10 µM in the test with A549 lung cancer cells was found to be 88.3 ± 4.9%; in the test with K562 leukaemia cells, 54.2 ± 3.8%; in the test on KG-1a leukaemia cells it was 31 ± 2.5%; in test [4] it was 48.5 ± 2.3%. Moreover, the IC50 is 4.2 ± 0.8 µM in the test with A549 lung cancer cells; > 2000 nM at PKC; 5.7 ± 0.5 µM in test [1]; 6.2 ± 0.9 µM in test [2]; 78.4 ± 1.5 nM in test [3]; 816 ± 38 nM against AKT1. For the same compound, the values for the IC50 against EPHB2, on TEK and against CDK5 were > 2000 nM, > 2000 nM and 1140 ± 20 nM, respectively. In the test with A549 cells migration, the “A549 cancer cell migration” value is recorded as “effective in reducing the cancer cell migration”. Further, the “annexin V-positive apoptotic cells” value in the test on A549 cells was determined as 16.5%.
With `COc1ccc(C2CC(c3ccc(Cl)cc3Cl)=NN2c2nc(C)c(C(=O)Nc3ccccc3)s2)cc1OC` (stereo not drawn) [Compound 10d, 2-(3-(2,4-Dichlorophenyl)-5-(3,4-dimethoxyphenyl)-4,5-dihydro-1H-pyrazol-1-yl)-4-methyl-N-phenylthiazole-5-carboxamide], the inhibition at 10 µM is 95.3 ± 5.3% with A549 lung cancer cells, 60.2 ± 2.3% with K562 leukaemia cells, 57.2 ± 3.4% in the test with KG-1a leukaemia cells and 60.9 ± 4.3% in [4]. The IC50 was 2.9 ± 0.2 µM in the test with A549 lung cancer cells; > 2000 nM on PKC; 3.5 ± 0.2 µM in [1]; 4.4 ± 0.6 µM in test [2]; 43 ± 2.4 nM in test [3]; 702 ± 24 nM at AKT1. Besides, the IC50 was > 2000 nM against EPHB2, > 2000 nM at TEK and 993 ± 15 nM on CDK5. The “A549 cancer cell migration” value with A549 cells migration is on record as “effective in reducing the cancer cell migration”. For the same compound, the “annexin V-positive apoptotic cells” value in the test with A549 cells came to 28.5%.
